Consider nine molecules from patent publication US8729084B2, “Benzofuranyl analogues as GPR119 modulators” (Bristol-Myers Squibb Company, priority 2010, dated 2014).

Read-outs that look alike come from different tables or passages of the source.

For this test, the target named is T1, chimeric human/mouse GPR119 (Homo sapiens, UniProt Q8TDV5, A235T/C313R/C323Y/E253K/F304I/F307L/G211A/G245S/H255C/K284R/L224V/L258Q/L288Q/L301F/P218V/P318T/Q252H/R262K/S214P/S219N/S228A/S309P/S322A/T217S/T239S/V227I/V300F).
T1 construct: the first 198 amino acids of human GPR119; the C-terminal 137 amino acids of the mouse receptor; expressed in transfected cells
T1 sequence (Q8TDV5 with tags, fused parts or gaps G211A/S214P/T217S/P218V/S219N/L224V/V227I/S228A/A235T/T239S/G245S/Q252H/E253K/H255C/L258Q/R262K/K284R/L288Q/V300F/L301F/F304I/F307L/S309P/C313R/P318T/S322A/C323Y): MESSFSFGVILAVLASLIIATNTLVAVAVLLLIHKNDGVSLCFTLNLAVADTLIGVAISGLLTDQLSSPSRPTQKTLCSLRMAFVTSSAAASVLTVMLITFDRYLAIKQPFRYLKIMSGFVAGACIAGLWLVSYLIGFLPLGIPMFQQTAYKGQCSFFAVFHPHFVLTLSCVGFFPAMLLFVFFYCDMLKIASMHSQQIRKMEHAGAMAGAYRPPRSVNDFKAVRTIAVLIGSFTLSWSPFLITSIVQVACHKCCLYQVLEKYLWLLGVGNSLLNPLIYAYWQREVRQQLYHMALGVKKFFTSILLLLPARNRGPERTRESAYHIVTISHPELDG
Kind of test: Tet-inducible cAMP assay (cAMP accumulation, HTRF). The class given is cell-based. How it is done: The in vitro modulation of recombinant human GPR119 was determined as follows.
A human-mouse chimeric GPR119 expression construct encoding 3 copies of the FLAG epitope tag, the first 198 amino acids of human GPR119 and the C-terminal 137 amino acids of the mouse receptor was cloned into a tetracycline inducible vector pcDNA5/FRT/TO (Invitrogen #V6520-20), which includes a hygromycin-resistance marker. Tightly controlled receptor expression was achieved by stable integration of this construct into the genome of a specific host cell line, Flp-In-T-Rex-HEK293, expressing the tetracycline repressor (Invitrogen). Once a stable hygromycin-resistant cell line was generated, the cells were maintained at 37° C. in a humidified 5% CO2 atmosphere in culture medium consisting of Dulbecco's modified Eagle's medium (DMEM; Invitrogen #11960) supplemented with 2 mM L-glutamine, 10% fetal bovine serum, 200 μg/ml hygromycin B, and 15 μg/ml blasticidin.
Forty-eight hours prior to the cAMP accumulation assay, cells stably expressing the chimeric human/mouse GPR119 construct were seeded at a density of 4×10^3 cells/well in 384 well poly-D-lysine coated solid white plates (BD #35-6661) and grown at 37° C. in a humidified 5% CO2 atmosphere in culture medium supplemented with 1 μg/ml tetracycline to induce expression of the receptor. On the day of the assay, medium was removed and cells were incubated for 50 min. at 37° C. in a humidified 5% CO2 atmosphere in 20 μl/well of assay buffer (phosphate-buffered saline with Ca^2+ and Mg^2+, 12 mM glucose, 0.1 mM isobutyl-methyl-xanthine, 0.1% fatty-acid free bovine serum albumin) with the desired concentration of compound added from a concentrated stock dissolved in dimethyl sulfoxide (DMSO) to give a final concentration of 1% DMSO in the assay. cAMP accumulation was measured using the CisBio homogeneous time resolved fluorescence (HTRF) assay kit (#62AM2PEC) following the manufacturer's protocol. Briefly, 10 μl each of the cAMP-HTRF fluorescence detection reagents were added to each well, and the samples were incubated for 40 min. at room temperature. Fluorescence was excited at 320 nm and measured at 665 and 620 nm using the Envision instrument (Perkin Elmer), the fluorescence ratio of 665/620 was calculated and converted to nanomolar concentrations of cAMP in each well by interpolation from a cAMP standard curve. The concentration-response curves and EC50 values were calculated with a four parameter logistic curve fit equation utilizing Excel/XLfit software (Microsoft and IDBS). The EC50 value was calculated as the concentration of agonist which increased the cAMP concentration to a value halfway between the baseline and the maximum.
Compounds of the present invention were tested in the Tet-inducible cAMP assay described immediately above and the results shown in Table 2 below were obtained.

Where [1] appears, read: Flp-In-T-Rex-HEK293 cells, tetracycline-induced receptor expression, cAMP accumulation after 50 min at 37° C., read-out: GPR119 EC50.

For `CCCS(=O)(=O)N1CC=C(c2cc(F)c3c(c2)CC(C2CCN(c4ncc(Cl)cn4)CC2)O3)CC1` (stereo not drawn) [Example 39], the EC50 under setting [1] worked out at 3.1 nM.

The molecule `CCCc1cnc(N2CCC(C3Cc4cc(N5CCN(S(=O)(=O)CCC)CC5)ccc4O3)CC2)nc1` (stereo not drawn) [Example 9, 5-Propyl-2-(4-(5-(4-(propylsulfonyl)piperazin-1-yl)-2,3-dihydrobenzofuran-2-yl)piperidin-1-yl)pyrimidine] yielded an EC50 of 1060 nM. `CCCS(=O)(=O)N1CC=C(c2ccc3c(c2)CC(C2CCN(C(=O)OC4CCCCC4)CC2)O3)CC1` (stereo not drawn) [Example 44]: it took 9.7 nM to reach a half-maximal effect (EC50). As to `CCCS(=O)(=O)N1CCC(C2Cc3cc(C4=CCN(S(C)(=O)=O)CC4)ccc3O2)CC1` (stereo not drawn) [Example 21], the EC50 under setting [1] was found to be 2430 nM. For the molecule `CCCc1cnc(N2CCC(C3Cc4cc(C5=CCN(S(=O)(=O)CCCCO)CC5)cc(F)c4O3)CC2)nc1` (stereo not drawn) [Example 4, 4-(4-(7-Fluoro-2-(1-(5-propylpyrimidin-2-yl)piperidin-4-yl)-2,3-dihydrobenzofuran-5-yl)-5,6-dihydropyridin-1(2H)-ylsulfonyl)butan-1-ol], the EC50 amounted to 168 nM. Take `CCCS(=O)(=O)N1CC=C(c2ccc3c(c2)CC(C2CCN(c4ccc(Cl)cn4)CC2)O3)CC1` (stereo not drawn) [Example 41]: the EC50 under setting [1] came to 82.7 nM.

Take `CC1(C2CCN(c3ncc(C4CC4)cn3)CC2)Cc2cc(C3=CCN(S(=O)(=O)CCCCO)CC3)ccc2O1` (stereo not drawn) [Example 11, 4-(4-(2-(1-(5-Cyclopropylpyrimidin-2-yl)piperidin-4-yl)-2-methyl-2,3-dihydrobenzofuran-5-yl)-5,6-dihydropyridin-1(2H)-ylsulfonyl)butan-1-ol]: under setting [1], the half-maximal effective concentration (EC50) was 8.9 nM.

On to `CC(C)CS(=O)(=O)N1CC=C(c2cc(F)c3c(c2)CC(C2CCN(c4ncc(Cl)cn4)CC2)O3)CC1` (stereo not drawn) [Example 40], for which the EC50 under setting [1] was determined as 3.4 nM. `CCCc1cnc(N2CCC(C3Cc4cc(C5=CCN(S(=O)(=O)CCC)CC5)cc(F)c4O3)CC2)nc1` (racemic) [Example 5, (±)-2-(4-(7-Fluoro-5-(1-(propylsulfonyl)-1,2,3,6-tetrahydropyridin-4-yl)-2,3-dihydrobenzofuran-2-yl)piperidin-1-yl)-5-propylpyrimidine] displayed an EC50 of 61.8 nM.
